Data published in patent US7432045B2 (priority 2003, dated 2008).
Like-named read-outs stand apart in the source and are kept apart here. Peptide text beside a SMILES is read from it.

Experiments:
HSV-1 KOS mutant hrR3 [1] = experiment: Inactivation of pre-adsorbed virus (virus inactivation); format: cell-based
[2] = MTS assay, eight cell lines; details: Vero, HeLa, CV-1PD, TM-1, DP-9, NIKS and W12E cells
HSV-1 KOS virions = experiment: Electron microscopy of peptide-treated virus (aggregation)
Protocol: Electron microscopy: Purified HSV-1 KOS virions (2.5×10^7 pfu/mL) according to Visalli et al., Virus Res. 29:167 (1993) were treated with 25 μM antiviral peptide SEQ ID NO:1 or the control peptide EBX (SEQ ID NO:17) in 40 μL serum-free DMEM buffered with 25 mM Hepes (pH 7.4) for 5 to 60 min at 4 or 23° C. Aliquots (10 μL) were adsorbed to pioloform poly-L-lysine-coated grids for 5 min at 23° C. Grids were rinsed with PBS, stained with 2% phosphotungstic acid (PTA) in water adjusted to pH ˜6, and air dried. Alternatively, virus was pre-adsorbed to grids and treated with peptides thereafter. A total of 4×10^9 pfu/mL of purified HSV-1 KOS in 5 μL PBS was applied to the coated grids for 5 min at 23° C., and the grids were rinsed once with serum-free DMEM buffered with 25 mM Hepes (pH 7.4) and treated with 15 μL of 5 mM EB or EBX in the same medium for 30 min at 37° C. The pH of highly concentrated solutions of antiviral peptide SEQ ID NO:1 and EBX was re-adjusted to 7.4 with NaOH prior to use. To prevent evaporation of the peptide-containing solutions, each grid was held in a Hiraoka flexible staining plate and covered with a miniature bell jar made from an 0.5 mL polypropylene micro-centrifuge tubes, small enough for the 15 μL to fill half of the bell jar facing the coated surface of the grid. The entire assembly was then incubated in a moist chamber for 30 min at 37° C. […]

HSV-1 KOS mutant hrR3 [3] = details: 25 μM peptide

SMILES | IC50 (HSV-1 KOS mutant hrR3 [1]; 33° C., read-out: Inactivation of Pre-Adsorbed Virus 33° C. IC50) | IC50 (HSV-1 KOS mutant hrR3 [1]; 33° C., read-out: Virus Inactivation IC50 (pre-adsorbed virus)) | IC50 (HSV-1 KOS mutant hrR3 [1]; 33° C., read-out: virus inactivation IC50) | IC50 (HSV-1 KOS mutant hrR3 [1]; 37° C., read-out: Inactivation of Pre-Adsorbed Virus 37° C. IC50) | EC50 [2] | aggregation of virus particles (HSV-1 KOS virions; 25 μM peptide) | time of aggregate formation (HSV-1 KOS virions; room temperature as well as 4° C.) | effect on development of lacZ+ cells when added immediately after citrate treatment (HSV-1 KOS mutant hrR3 [3])
N=C(N)NCCC[C@H](NC(=O)CN)C(=O)N[C@@H](CCCCN)C(=O)N[C@@H](CCCCN)C(=O)N[C@@H](CCCNC(=N)N)C(=O)N[C@@H](CCCNC(=N)N)C(=O)N[C@@H](CCC(N)=O)C(=O)N[C@@H](CCCNC(=N)N)C(=O)N[C@@H](CCCNC(=N)N)C(=O)N[C@@H](CCCNC(=N)N)C(=O)N[C@@H](CS)C(=O)O [TAT-C, NH2-GRKKRRQRRRC-COOH] | 11 µM | 11 µM | 11 µM | 5.2 µM |  |  |  | 
CC(C)C[C@H](NC(=O)[C@H](C)NC(=O)[C@H](CC(C)C)NC(=O)[C@H](CC(C)C)NC(=O)[C@@H](NC(=O)[C@H](C)NC(=O)[C@@H]1CCCN1C(=O)[C@H](CC(C)C)NC(=O)[C@H](CC(C)C)NC(=O)[C@H](C)NC(=O)[C@@H](NC(=O)[C@H](C)NC(=O)[C@H](C)NC(=O)[C@H](CCCCN)NC(=O)[C@H](CCCCN)NC(=O)[C@H](CCCNC(=N)N)NC(=O)[C@@H](N)CCCNC(=N)N)C(C)C)C(C)C)C(=O)N[C@@H](CC(C)C)C(=O)N[C@@H](C)C(=O)N1CCC[C@H]1C(=O)O [EB] (H-RRKKAAVALLPAVLLALLAP-OH) |  |  |  |  | > 100 µM | nearly all of the particles were seen in relatively few large aggregates | < 5 min | no longer had any effect
